How the values were obtained:
[1] = system: human PIG1 cell and human dermal fibroblast cell; details: 72 hours, highest concentration tested 10 μM
[2] = system: Atox1-WD4 interaction (eCALWY3 probe); test: eCALWY3 FRET assay of Atox1-WD4 interaction; type: biochemical, human; details: for Fluorescence Intensity Ratio (Citrine/Cerulean): 100 μM compound added; for Recover %: 100 μM compound, recovery of FRET ratio towards eCALWY3 only
Method: FRET for the eCALWY3 was performed in 150 mM HEPES, 100 mM NaCl, 1 mM DTT and 10% glycerol (pH 7.1). Zn^2+ titration was done by mixing 0.9 mM of Zn^2+ from a slightly acidic stock solution of ZnCl2 with buffering systems consisting of 1 mM DHPTA. The effects of varying concentrations of the small molecules were evaluated. Fluorescence spectra and emission anisotropy were recorded on a Varian Cary Eclipse spectrometer.

[3] = system: AMPK phosphorylation and ACC1 phosphorylation; test: Western blot of AMPK and ACC1 phosphorylation; type: cell-based; details: co-treatment with compound 50
cell proliferation = test: Rescue of cell proliferation inhibition induced by compound 50; type: cell-based; details: co-treatment with compound 50
H1299 cells [4] = test: 14C-lipid synthesis from 14C-glucose; type: cell-based; details: co-treatment with compound 50
[5] = system: Lung cancer H1299 cell, Head and neck cancer 212LN cell, Breast cancer MB231 cell; test: Cancer cell viability / proliferation; details: H1299, 212LN, MB231; increasing doses
K562 cancer cells = test: 8-OHdG levels by triple quadrupole mass spectrometry; type: cell-based; details: NAC 3 mM
From the text: FIG. 20B illustrates 8-OHdG levels in K562 cancer cells determined by triple quadrupole mass spectrometry analysis. […] .

H1299 cells [6] = test: ROS production (DCFH-DA); type: cell-based; details: co-treatment with compound 50
Method: (§1) Cells were treated with DMSO and DC_AC50 for 12 h and ROS generation was detected with DCFH-DA. Cells were incubated with 10 μM of DCFH-DA for 30 min at 37° C., washed twice with PBS, and immediately analyzed by a FACScan flow cytometer. The antioxidant NAC was treated with 3 mM concentration.

K562 cells = test: ROS production (DCFH-DA); type: cell-based; details: co-treatment with compound 50
Method: as §1

H1299 cancer cells = test: 8-OHdG levels by triple quadrupole mass spectrometry; type: cell-based; details: NAC 3 mM
From the text: FIG. 20A illustrates 8-OHdG levels in H1299 cancer cells determined by triple quadrupole mass spectrometry analysis. […] .

tumor growth = details: TM-induced copper deficiency; cited from earlier work

Row | Structure (SMILES) | viability of normal cells [1] | Fluorescence Intensity Ratio (Citrine/Cerulean) [2] | Recover % [2] [%] | cell death in cancer cells [5] | further results
1 | Cc1cc(NC(=O)c2sc3nc(-c4ccccc4)cc(C(F)(F)F)c3c2N)no1 [Compound 71, 3-amino-N-(5-methylisoxazol-3-yl)-6-phenyl-4-(trifluoromethyl)thieno[2,3-b]pyridine-2-carboxamide] | toxic to normal cells | eCALWY3 only: 2.25 100 μM compound added: 1.86 | 83 |  | 
2 | c1cc(-c2cnn3cc(-c4ccc(OCCN5CCCCC5)cc4)cnc23)ccn1 [compound C, reference compound] |  |  |  |  | rescue of AMPK and ACC1 phosphorylation increased by compound 50 [3]: almost completely reversed; rescue of cell proliferation inhibited by compound 50 (cell proliferation): partially rescued; rescue of lipid synthesis decreased by compound 50 (H1299 cells [4]): recovered lipid synthesis
3 | COc1ccc2cc3c(N)c(C(=O)Nc4ccc(C(C)=O)cc4)sc3nc2c1 [Compound 61, N-(4-acetylphenyl)-3-amino-7-methoxythieno[2,3-b]quinoline-2-carboxamide] | not harmful | eCALWY3 only: 3.68 100 μM compound added: 2.72 | 74 | induce cell death | 
4 | CC(=O)N[C@@H](CS)C(=O)O [NAC, N-acetyl-L-cysteine, reference compound] |  |  |  |  | rescue of 8-OHdG levels increased by compound 50 (K562 cancer cells): rescued; rescue of cellular ROS levels increased by compound 50 (H1299 cells [6]): almost completely rescued; rescue of cellular ROS levels increased by compound 50 (K562 cells): almost completely rescued; rescue of AMPK and ACC1 phosphorylation increased by compound 50 [3]: could not be rescued; rescue of cell proliferation inhibited by compound 50 (cell proliferation): partially rescued; rescue of 8-OHdG levels increased by compound 50 (H1299 cancer cells): rescued
5 | [SH-].[SH-].[S]=[Mo]=[S] [TM, tetrathiomolybdate] |  |  |  |  | tumor growth (tumor growth): significantly inhibited tumor growth
6 | CCN1CCc2nc3sc(C(=O)Nc4ccccc4OC(F)(F)F)c(N)c3cc2C1 [Compound 2, 3-amino-6-ethyl-N-(2-(trifluoromethoxy)phenyl)-5,6,7,8-tetrahydro-thieno[2,3-b][1,6]naphthyridine-2-carboxamide] | not harmful | eCALWY3 only: 3.54 100 μM compound added: 3.05 | 86 | induce cell death | 
7 | Nc1c(C(=O)NCC(c2ccccc2)c2ccccc2)sc2nc(-c3ccncc3)cc(C(F)(F)F)c12 [Compound 30] | not harmful | eCALWY3 only: 2.27 100 μM compound added: 1.53 | 67 | induce cell death | 
8 | COc1cccc(-c2ccc3c(N)c(C(=O)Nc4cc(OC)ccc4Cl)sc3n2)c1 [Compound 49, 3-amino-N-(2-chloro-5-methoxyphenyl)-6-(3-methoxyphenyl)thieno[2,3-b]pyridine-2-carboxamide] | not harmful | eCALWY3 only: 2.24 100 μM compound added: 1.89 | 84 | induce cell death | 

From US20160074373A1, “METHODS AND COMPOSITIONS FOR INHIBITING HUMAN COPPER TRAFFICKING PROTEINS ATOX1 AND CCS” (SHANGHAI INSTITUTE OF MATERIA MEDICA, CHINESE ACADEMY OF …, priority 2013, published 2016)
